Measured values: publication PMC6199744, “Development of Chemical Proteomics for the Folateome and Analysis of the Kinetoplastid Folateome” (ACS Infectious Diseases, 2018)

Test system: L. major lysate proteins
Assay: Multitargeted bead mixture chemoproteomics, single concentration competition, proteome-wide
Format: binding
Conditions: for fold change: vehicle control = 1

NCCCNc1ccc(C(=O)NC(CCC(=O)O)C(=O)O)cc1 (stereo not drawn) [compound 7]
fold change (protein LMJF.15.0040 HYPOTHETICAL PROTEIN, CONSERVED (Possible lysine decarboxylase, putative)): 0.73
fold change vs vehicle control (protein LMJF.15.0690 HY[…], CONSERVED): 1.02
fold change (protein LMJF.15.1010 GLUTAMATE DEHYDROGENASE): 1.04
fold change (protein LMJF.15.1190 HY[…], CONSERVED (cyclic nucleotide-binding domain containing protein, putative)): 1.08
fold change vs vehicle control (protein LMJF.16.0520 HY[…], CONSERVED): 1.02
fold change vs vehicle control (protein LMJF.16.0540 ASPARTATE CARBAMOYLTRANSFERASE, PUTATIVE): 0.99
fold change relative to vehicle control (protein LMJF.16.0760, TRANSALDOLASE, PUTATIVE): 0.99
fold change vs vehicle control (protein LMJF.16.0940 DYNEIN LIGHT CHAIN, PUTATIVE): 1.11
fold change relative to vehicle control (protein LMJF.16.1180, COATOMER DELTA SUBUNIT-LIKE PROTEIN): 1.2
fold change relative to vehicle control (protein LMJF.16.1320, […], PUTATIVE): 1.34
fold change relative to vehicle control (protein LMJF.16.1420, HY[…], CONSERVED): 1.05
fold change relative to vehicle control (protein LMJF.17.0081, […] 1-ALPHA): 1.09
fold change relative to vehicle control (protein LMJF.18.0270, GLYCOGEN SYNTHASE KINASE, PUTATIVE): 0.98
fold change (protein LMJF.18.0580 P[…]-COA HYDRATASE, PUTATIVE): 1.04
fold change relative to vehicle control (protein LMJF.18.0680, CITRATE SYNTHASE, PUTATIVE): 1.06
fold change vs vehicle control (protein LMJF.18.1010 DYNEIN LIGHT CHAIN 2B, CYTOPLASMIC, PUTATIVE): 1.15
fold change vs vehicle control (protein LMJF.18.1210 PROLYL-TRNA SYNTHETASE, PUTATIVE,BI[…]-TRNA SYNTHETASE, PUTATIVE): 1.03
fold change vs vehicle control (protein LMJF.18.1370 HEAT SHOCK PROTEIN, PUTATIVE): 1.14
fold change (protein LMJF.19.0200 ADP,ATP CARRIER PROTEIN 1, MIT[…], PUTATIVE): 1.08
fold change vs vehicle control (protein LMJF.19.1120 […]-ATP-ASE SUBUNIT, PUTATIVE): 1.07
fold change vs vehicle control (protein LMJF.19.1160 HYPOTHETICAL PROTEIN, CONSERVED): 0.99
fold change vs vehicle control (protein LMJF.19.1560 INOSINE-5'-MONOPHOSPHATE DEHYDROGENASE): 0.97
fold change relative to vehicle control (protein LMJF.19.1620, POTASSIUM VOLTAGE-GATED CHANNEL, PUTATIVE): 1.12
fold change vs vehicle control (protein LMJF.20.1280 SMALL MYRISTOYLATED PROTEIN 4, PUTATIVE): 0.92
fold change (protein LMJF.21.0810 METHIONYL-TRNA SYNTHETASE, PUTATIVE): 0.87
fold change (protein LMJF.21.1450 ARGININE N-METHYLTRANSFERASE, TYPE II, PUTATIVE): 1.06
fold change vs vehicle control (protein LMJF.21.1830 […] 5 SUBUNIT, PUTATIVE,20S […] ALPHA 5, (PUTATIVE)): 1.01
fold change (protein LMJF.22.0230 AMINO ACID PERMEASE, PUTATIVE): 1.14
fold change vs vehicle control (protein LMJF.22.0570 […] SUBUNIT 1, PUTATIVE): 1.04
fold change vs vehicle control (protein LMJF.22.0730 HYPOTHETICAL PROTEIN, CONSERVED): 0.96
fold change (protein LMJF.22.0770 NADH-CYTOCHROME B5 REDUCTASE, PUTATIVE): 0.85
fold change relative to vehicle control (protein LMJF.23.0020, HYPOTHETICAL PROTEIN, CONSERVED): 1.99
fold change relative to vehicle control (protein LMJF.23.0040, PEROXIDOXIN): 0.99
fold change relative to vehicle control (protein LMJF.23.0080, HYPOTHETICAL PROTEIN, CONSERVED): 0.99
fold change (protein LMJF.23.0210 ATP-BINDING CASSETTE PROTEIN SUBFAMILY C, MEMBER 1, PUTATIVE): 1.03
fold change (protein LMJF.23.0370 CYTOCHROME C OXIDASE SUBUNIT 10, PUTATIVE): 0.97
fold change relative to vehicle control (protein LMJF.23.0540, ACETYL-COA SYNTHETASE, PUTATIVE): 1.01
fold change vs vehicle control (protein LMJF.23.0560 KINESIN, PUTATIVE): 0.91
fold change vs vehicle control (protein LMJF.23.1410 HY[…], CONSERVED): 1.12
fold change relative to vehicle control (protein LMJF.24.0070, HY[…], CONSERVED): 1.03
fold change (protein LMJF.24.0140 ANKYRIN/TPR REPEAT PROTEIN): 0.93
fold change (protein LMJF.24.0400 HYPOTHETICAL PROTEIN, CONSERVED (TPR repeat, putative)): 0.96
fold change relative to vehicle control (protein LMJF.24.1510, IGE-DEPENDENT HISTAMINE-RELEASING FACTOR, PUTATIVE): 0.85
fold change relative to vehicle control (protein LMJF.24.1630, SUCCINATE DEHYDROGENASE FLAVOPROTEIN, PUTATIVE): 1
fold change relative to vehicle control (protein LMJF.24.2060, TRANSKETOLASE): 1.02
fold change relative to vehicle control (protein LMJF.25.0010, BETA […] TRANSFERASE): 1.21
fold change relative to vehicle control (protein LMJF.25.0910, CYCLOPHILIN A): 0.9
fold change vs vehicle control (protein LMJF.25.1130 […] OXIDASE VII, PUTATIVE): 1.09
fold change relative to vehicle control (protein LMJF.25.1180, ATPASE BETA SUBUNIT, PUTATIVE): 1.06
fold change vs vehicle control (protein LMJF.25.1610 HY[…], CONSERVED): 1.08
fold change vs vehicle control (protein LMJF.25.1620 HYPOTHETICAL PROTEIN, CONSERVED): 0.99
fold change (protein LMJF.25.2340 SERINE/THREONINE-PROTEIN KINASE, PUTATIVE,PROTEIN KINASE, PUTATIVE): 0.83
fold change relative to vehicle control (protein LMJF.26.0630, HY[…], CONSERVED): 1.11
fold change vs vehicle control (protein LMJF.26.1240 HEAT SHOCK PROTEIN 70-RELATED PROTEIN): 1.06
fold change (protein LMJF.26.1710 […] OXIDASE SUBUNIT V, PUTATIVE): 1.03
fold change vs vehicle control (protein LMJF.26.2480 CDP-DIACYLGLYCEROL--INOSITOL 3-[…], PUTATIVE): 1.06
fold change vs vehicle control (protein LMJF.26.2560 HYPOTHETICAL PROTEIN, CONSERVED): 0.94
fold change vs vehicle control (protein LMJF.27.0190 PROTEASOME ALPHA 7 SUBUNIT, PUTATIVE): 0.97
fold change (protein LMJF.27.0650 HY[…], CONSERVED): 1.07
fold change (protein LMJF.27.0700 HYPOTHETICAL PROTEIN, CONSERVED): 1.67
fold change vs vehicle control (protein LMJF.27.0760 GTP-binding protein homologue): 0.78
fold change vs vehicle control (protein LMJF.27.1060 CYSTEINE DESULFURASE, PUTATIVE): 0.93
fold change vs vehicle control (protein LMJF.27.1110 MIT[…] BINDING PROTEIN 1,GBP21, MRP1): 1.07
fold change (protein LMJF.27.1250 HYPOTHETICAL PROTEIN, CONSERVED (Serine-threonine kinase receptor-associated protein, putative)): 0.97
fold change relative to vehicle control (protein LMJF.27.1390, 60S ACIDIC RIBOSOMAL SUBUNIT PROTEIN, PUTATIVE): 1.05
fold change (protein LMJF.27.1460 PROTEASOME REGULATORY NON-ATP-ASE SUBUNIT 3, PUTATIVE): 0.87
